Test results taken from patent US9682925B2, “Cyclopropaneamine compound” (TAKEDA PHARMACEUTICAL COMPANY LIMITED, priority 2011, dated 2017).
pIC50: −log10 of the molar value. Where a name gives a salt, the structure may show the parent alone.

Experiments:
Assay type in all cases: biochemical
MAO-A = target: T1, MAO-A (Homo sapiens, UniProt P21397); assay: Measurement of MAO-A inhibitory activity (MAO-Glo Assay)
T1 construct: purchased Sigma-Aldrich Co. LLC
T1 sequence (P21397 1-527): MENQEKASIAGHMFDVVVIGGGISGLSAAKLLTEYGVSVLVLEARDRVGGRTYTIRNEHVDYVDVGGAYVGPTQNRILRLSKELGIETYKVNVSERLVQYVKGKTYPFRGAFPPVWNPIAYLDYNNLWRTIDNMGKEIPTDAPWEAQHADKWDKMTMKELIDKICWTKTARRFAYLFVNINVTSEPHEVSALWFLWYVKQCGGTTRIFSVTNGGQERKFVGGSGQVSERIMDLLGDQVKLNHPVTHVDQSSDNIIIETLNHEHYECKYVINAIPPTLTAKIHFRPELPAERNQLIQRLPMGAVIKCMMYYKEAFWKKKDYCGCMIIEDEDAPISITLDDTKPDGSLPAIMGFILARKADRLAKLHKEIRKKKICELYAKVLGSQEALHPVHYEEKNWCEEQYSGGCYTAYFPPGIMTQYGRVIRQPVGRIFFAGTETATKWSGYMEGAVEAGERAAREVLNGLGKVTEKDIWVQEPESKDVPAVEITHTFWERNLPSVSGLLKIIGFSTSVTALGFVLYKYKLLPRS
How it was run: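 Luminescent MAO-Glo read-out: % inhibition computed from counts relative to enzyme-only control and enzyme-free blank. Compound and 400 ng MAO-A in HEPES pH 7.5 with 5% glycerol stood 10 min at room temperature before MAO substrate (160 μM stock) started a 60 min reaction.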

human LSD1(171-852) = target: T2, human LSD1(171-852) (Homo sapiens, UniProt O60341); assay: Measurement of LSD1 inhibitory activity (time-resolved fluorescence, biotin-histone H3 mono methylated K4 peptide); details: read-out: LSD1 IC50 value
T2 construct: to give hLSD1(171-852) purified product; made in house; host or cells: Escherichia coli C43(DE3) pLysS

MAO-B = target: T3, MAO-B (Homo sapiens, UniProt P27338); assay: Measurement of MAO-B inhibitory activity (MAO-Glo Assay)
T3 construct: purchased Sigma-Aldrich Co. LLC
T3 sequence (P27338 1-520): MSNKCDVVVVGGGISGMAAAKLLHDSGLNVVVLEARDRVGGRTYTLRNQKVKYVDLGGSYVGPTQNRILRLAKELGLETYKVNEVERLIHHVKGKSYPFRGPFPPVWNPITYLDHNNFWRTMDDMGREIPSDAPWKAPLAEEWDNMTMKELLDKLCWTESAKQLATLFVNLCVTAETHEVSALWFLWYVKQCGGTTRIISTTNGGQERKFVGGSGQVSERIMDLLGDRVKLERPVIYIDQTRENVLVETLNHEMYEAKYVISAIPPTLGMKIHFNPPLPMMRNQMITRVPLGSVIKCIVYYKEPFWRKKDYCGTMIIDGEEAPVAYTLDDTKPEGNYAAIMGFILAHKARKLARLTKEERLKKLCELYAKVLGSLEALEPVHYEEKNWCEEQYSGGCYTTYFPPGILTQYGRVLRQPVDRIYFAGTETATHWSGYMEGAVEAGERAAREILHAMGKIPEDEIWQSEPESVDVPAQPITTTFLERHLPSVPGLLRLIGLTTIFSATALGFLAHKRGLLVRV
How it was run: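 Percent inhibition was calculated from luciferin-based luminescence, corrected with a blank lacking enzyme and a control lacking compound. The reaction ran 60 min at room temperature after adding MAO substrate (16 µM as added). This followed a 10 min compound–enzyme preincubation in HEPES pH 7.5 buffer.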

pIC50 (MAO-A) | pIC50 (human LSD1(171-852)) | pIC50 (MAO-B) | SMILES
5.74 | 6.72 | 5.77 | CC(N[C@@H]1C[C@H]1c1ccc(NC(=O)c2ccc(-c3ccccc3)cc2)cc1)c1ccccc1 (relative stereo) [Example 47, N-(4-{trans-2-[(1-phenylethyl)amino]-cyclopropyl}phenyl)-biphenyl-4-carboxamide]
< 5.00 | > 7.00 | < 5.00 | O=C(Nc1ccc([C@@H]2C[C@H]2NCC2CC2)cc1)c1ccc(-c2ccccc2Cl)cc1 (relative stereo) [Example 78, 2′-chloro-N-(4-{trans-2-[(cyclopropylmethyl)amino]cyclopropyl}phenyl)biphenyl-4-carboxamide hydrochloride]
< 5.00 | > 7.00 | 5.03 | NCCN[C@@H]1C[C@H]1c1ccc(NC(=O)c2ccc(-c3ccccc3)cc2)cc1 (relative stereo) [Example 44, N-(4-{trans-2-[(2-aminoethyl)-amino]cyclo-propyl}phenyl)-biphenyl-4-carboxamide]
< 5.00 | 7.00 | < 5.00 | O=C(Nc1ccc([C@@H]2C[C@H]2NCC2CC2)cc1)c1c[nH]c2ccccc12 (relative stereo) [Example 127, N-(4-{trans-2-[(cyclopropyl-methyl)amino]cyclo-propyl}phenyl)-1H-indole-3-carboxamide]
< 5.00 | > 7.00 | < 5.00 | O=C(Nc1ccc([C@@H]2C[C@H]2NCC2CC2)cc1)c1ccc(-c2cnco2)cc1 (relative stereo) [Example 95, N-(4-{trans-2-[(cyclopropylmethyl)-amino]cyclopropyl}-phenyl)-4-(1,3-oxazol-5-yl)benzamide]
5.28 | > 7.00 | < 5.00 | O=C(Nc1ccc([C@@H]2C[C@H]2NCC2CC2)cc1)c1n[nH]c2ccccc12 (relative stereo) [Example 128, N-(4-{trans-2-[(cyclopropyl-methyl)amino]cyclo-propyl}phenyl)-1H-indazole-3-carboxamide]
< 5.00 | > 7.00 | < 5.00 | O=C(Nc1ccc([C@@H]2C[C@H]2NC2CCC(F)(F)CC2)cc1)c1cccc(C(F)(F)F)c1 (relative stereo) [Example 154, N-(4-{trans-2-[(4,4-difluorocyclohexyl)amino]cyclopropyl}phenyl)-3-(trifluoromethyl)benzamide hydrochloride]
5.04 | > 7.00 | < 5.00 | O=C(Nc1ccc([C@@H]2C[C@H]2NCc2cccnc2)cc1)c1ccc(-c2ccccc2)cc1 (relative stereo) [Example 38, N-(4-{trans-2-[(pyridin-3-ylmethyl)amino]-cyclopropyl}-phenyl)biphenyl-4-carboxamide]
5.46 | > 7.00 | < 5.00 | O=C(Nc1ccc([C@@H]2C[C@H]2NCc2ccccc2)cc1)c1cccc(Cc2ccccc2)c1 (relative stereo) [Example 28, 3-benzyl-N-{4-[trans-2-(benzylamino)cyclopropyl]phenyl}benzamide]
< 5.00 | > 7.00 | < 5.00 | NS(=O)(=O)c1ccc(C(=O)Nc2ccc([C@@H]3C[C@H]3NCC3CC3)cc2)cc1 (relative stereo) [Example 88, N-(4-{trans-2-[(cyclopropylmethyl)amino]cyclopropyl}-phenyl)-4-sulfamoylbenzamide]
< 5.00 | > 7.00 | < 5.00 | CC(C)(C)CN[C@@H]1C[C@H]1c1ccc(NC(=O)c2ccccc2)cc1 (relative stereo) [Example 17, N-(4-{trans-2-[(2,2-dimethyl-propyl)amino]-cyclopropyl)-phenyl)benzamide]
5.08 | > 7.00 | < 5.00 | O=C(Nc1ccc([C@@H]2C[C@H]2NCC2CC2)cc1)c1cccc(-n2ccnc2)c1 (relative stereo) [Example 148, N-(4-{trans-2-[(cyclopropylmethyl)amino]cyclopropyl}phenyl)-3-(1H-imidazol-1-yl)benzamide hydrochloride]
< 5.00 | > 7.00 | < 5.00 | O=C(Nc1ccc([C@@H]2C[C@H]2NCC2CC2)cc1)c1ccc2[nH]ccc2c1 (relative stereo) [Example 114, N-(4-{trans-2-[(cyclopropylmethyl)amino]cyclopropyl}phenyl)-1H-indole-5-carboxamide trifluoroacetate]
< 5.00 | > 7.00 | < 5.00 | O=C(Nc1ccc([C@@H]2C[C@H]2NCC2CC2)cc1)c1ccc2nc(-c3ccco3)[nH]c2c1 (relative stereo) [Example 98, N-(4-{trans-2-[(cyclopropylmethyl)-amino]cyclopropyl}-phenyl)-2-(2-furyl)-1H-benzimidazole-6-carboxamide]
< 5.00 | > 7.00 | < 5.00 | Cc1ccc(C(=O)Nc2ccc([C@@H]3C[C@H]3NCC3CC3)cc2)cc1 (relative stereo) [Example 68, N-(4-{trans-2-[(cyclopropylmethyl)amino]cyclopropyl}phenyl)-4-methylbenzamide hydrochloride]
< 5.00 | 5.72 | < 5.00 | O=C(Nc1ccc([C@@H]2C[C@H]2N(CC2CC2)CC2CC2)cc1)c1ccc(-c2ccccc2)cc1 (relative stereo) [Example 60, N-(4-{trans-2-[bis(cyclopropylmethyl)amino]cyclopropyl}phenyl)biphenyl-4-carboxamide hydrochloride]
< 5.00 | > 7.00 | < 5.00 | O=C(Nc1ccc([C@@H]2C[C@H]2NCC2CC2)cc1)c1cc(-c2ccccc2)[nH]n1 (relative stereo) [Example 126, N-(4-{trans-2-[(cyclopropyl-methyl)amino]cyclo-propyl}phenyl)-5-phenyl-1H-pyrazole-3-carboxamide]
< 5.00 | > 7.00 | < 5.00 | O=C(Nc1ccc([C@@H]2C[C@H]2NCC2CC2)cc1)c1cnc(-c2ccccc2)o1 (relative stereo) [Example 104, N-(4-{trans-2-[(cyclopropylmethyl)-amino]cyclopropyl}-phenyl)-2-phenyl-1,3-oxazole-5-carboxamide]
< 5.00 | > 7.00 | < 5.00 | O=C(Nc1ccc([C@@H]2C[C@H]2NCC2CC2)cc1)c1ccc2cc[nH]c2c1 (relative stereo) [Example 115, N-(4-{trans-2-[(cyclopropylmethyl)amino]cyclopropyl}-phenyl)-1H-indole-6-carboxamide]
5.17 | > 7.00 | < 5.00 | O=C(Nc1ccc([C@@H]2C[C@H]2NCC2CC2)cc1)c1cccc(Cn2ccnc2)c1 (relative stereo) [Example 146, N-(4-{trans-2-[(cyclopropylmethyl)amino]cyclopropyl}phenyl)-3-(1H-imidazol-1-ylmethyl)benzamide hydrochloride]
< 5.00 | > 7.00 | < 5.00 | Cc1cc(NC(=O)c2ccccc2)ccc1[C@@H]1C[C@H]1NCC1CC1 (relative stereo) [Example 82, N-(4-{trans-2-[(cyclopropylmethyl)amino]cyclopropyl}-3-methylphenyl)benzamide hydrochloride]
